Test results from PubChem BioAssay (NCI).
“And” between values parts separate entries of the source, which are not always exact repeats. Identical values can stand only once.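 Test compounds were applied to cells in 96-well plates for 48 hours at 5 doses. GI50 marks 50% less growth. Definition used: TGI = concentration required for complete inhibition of growth.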

Key:
Assay in all cases: DTP human tumour cell line panel, 48 h
786-0 renal = tested on: 786-0 renal
CCRF-CEM leukemia = tested on: CCRF-CEM leukemia
DU-145 prostate = tested on: DU-145 prostate
HL-60(TB) leukemia = tested on: HL-60(TB) leukemia
HOP-92 NSCLC = tested on: HOP-92 NSCLC
M14 melanoma = tested on: M14 melanoma
NCI-H23 lung = tested on: NCI-H23 lung
OVCAR-3 ovarian = tested on: OVCAR-3 ovarian
SF-295 CNS = tested on: SF-295 CNS
SN12C renal = tested on: SN12C renal

SMILES	GI50 (786-0 renal)	TGI (786-0 renal)	GI50 (CCRF-CEM leukemia)	TGI (CCRF-CEM leukemia)	GI50 (DU-145 prostate)	TGI (DU-145 prostate)	GI50 (HL-60(TB) leukemia)	TGI (HL-60(TB) leukemia)	GI50 (HOP-92 NSCLC)	TGI (HOP-92 NSCLC)	GI50 (M14 melanoma)	TGI (M14 melanoma)	GI50 (NCI-H23 lung)	TGI (NCI-H23 lung)	GI50 (OVCAR-3 ovarian)	TGI (OVCAR-3 ovarian)	GI50 (SF-295 CNS)	TGI (SF-295 CNS)	GI50 (SN12C renal)	TGI (SN12C renal)
COc1cc2c(c(OC)c1OC)-c1ccc(SC)c(=O)cc1[C@@H](NC1OC(CO)C(O)C(O)C1O)CC2 (stereo partly specified)	57.5 nM	> 100 µM	38.2 nM	> 100 µM	35.2 nM	> 100 µM	22.7 nM	0.0666 µM	37.3 nM	> 57.9 µM	31.1 nM	> 100 µM	0.0568 µM	> 100 µM	24.4 nM	0.0762 µM	33.8 nM	> 100 µM	0.0557 µM	> 100 µM
COc1ccc(-c2cc(=O)c3c(OC)c(OC)c(OC)c(OC)c3o2)cc1		> 100 µM		> 100 µM		> 100 µM		> 100 µM		> 100 µM		> 100 µM		> 100 µM		> 100 µM		> 100 µM		> 100 µM
CCCCCn1sc(=O)n(Cc2ccc(CNC(=O)OCc3ccc4cccc(O)c4n3)cc2)c1=O	1170 nM	2.89 µM	489 nM	> 100 µM	1600 nM	3.09 µM	2880 nM	> 100 µM	1210 nM	2.97 µM	1330 nM	3.12 µM	1.67 µM	3.59 µM	1260 nM	2.67 µM	6730 nM	20.1 µM	1.49 µM	2.82 µM
BrCc1ccc(CBr)cc1	2590 nM	8.63 µM	2070 nM		3380 nM	12.9 µM	7600 nM		18700 nM	53.7 µM	11300 nM	> 47.3 µM	10.7 µM	> 35.4 µM	4100 nM	17.4 µM	5120 nM	15.8 µM	2.2 µM	6.27 µM
CC(=O)c1c(C(F)(F)F)n([O-])c2ccc(C)cc2[n+]1=O	1470 nM	4.7 µM	555 nM	4.83 µM	1430 nM	3.07 µM	1920 nM	10.5 µM	1110 nM	4.81 µM	2410 nM	8.88 µM	2.08 µM	11.2 µM	7090 nM	> 48.2 µM	5710 nM	> 44.2 µM	1.5 µM	4.72 µM
C#CCOc1cccc(Nc2ncnc3c(NC(=O)CCl)cccc23)c1	18700 nM	37.9 µM	10700 nM	35.9 µM	17200 nM	37.8 µM	17500 nM	40.6 µM	17000 nM	33.8 µM	18200 nM	54.5 µM	18.3 µM	47.9 µM	16500 nM	31.7 µM	17400 nM	34.5 µM	29.5 µM	> 100 µM
COc1ccc(C(=O)N2c3ccccc3Sc3ccccc32)c(OC)c1	480 nM	> 100 µM	394 nM	> 100 µM	491 nM	> 100 µM	297 nM	18.5 µM	374 nM	97.2 µM	359 nM	> 100 µM	0.776 µM	> 100 µM	322 nM	1.14 µM	484 nM	> 100 µM	0.586 µM	> 100 µM
CCN1C(=O)N(CC)C2C1NN=c1s/c(=C\c3ccccc3Br)c(=O)n12 (stereo unspecified)	52.5 nM	37 µM	35.4 nM	> 100 µM	36.2 nM	> 38.7 µM	24.1 nM	0.0639 µM	370 nM	44.7 µM	31.8 nM	13.8 µM	0.0552 µM	29.6 µM	26.6 nM	0.0764 µM	28.6 nM	15.1 µM	0.0519 µM	31.2 µM
CCOc1nc(N)nc(C)c1N=Nc1ccc(Cl)cc1		> 100 µM		> 100 µM		> 100 µM		> 100 µM		88 µM		> 100 µM		> 100 µM		> 100 µM		94.1 µM		86.4 µM
COc1ccc2cc(-c3c(-c4ccncc4)nc(-c4ccc(S(C)=O)cc4)n3C)ccc2c1 (stereo unspecified)	16700 nM	> 25 µM	> 21600 nM	> 25 µM	> 25000 nM	> 25 µM	18300 nM	> 25 µM	5670 nM	> 25 µM	> 25000 nM	> 25 µM	> 25 µM	> 25 µM	15300 nM	> 25 µM	> 22400 nM	> 25 µM	18 µM	> 25 µM
CCN(CCO)CC(C)Nc1ccc([N+](=O)[O-])c2sc3ccccc3c(=O)c12 (stereo unspecified)	1370 nM	3.97 µM	1000 nM	7.19 µM	1240 nM	4.9 µM	917 nM	4 µM	1600 nM	7.7 µM	1540 nM	3.45 µM	1.78 µM	6.4 µM	2960 nM	12.3 µM	488 nM	2.12 µM	2.15 µM	18.4 µM
Cc1cc(N(CCC#N)CCC#N)ccc1/C=C1N=C(/C=C\c2ccccc2)N(c2ccc(Cl)cc2)C\1=O		> 100 µM		> 100 µM		> 100 µM		> 100 µM		> 100 µM		> 48.2 µM		> 100 µM		> 100 µM		> 100 µM		> 100 µM
COC(=O)c1nc(-c2ccccc2)oc1S(=O)(=O)n1nc(C)cc1N	12500 nM	25.6 µM	2110 nM	10.5 µM	15900 nM	29.3 µM	3020 nM	12.5 µM	1730 nM	3.89 µM	5660 nM	20 µM	16.7 µM	35.9 µM	2030 nM	3.99 µM	29700 nM	> 100 µM	5.64 µM	19.7 µM
CN(C)CC1CCCC1=O (stereo unspecified)		16 µM		0.533 µM		> 46.9 µM		0.374 µM		2.97 µM		3.46 µM		11.7 µM		2.91 µM		35.8 µM		2.85 µM
CCCCn1c(=O)c2c(nc3n2CCCN3CCc2ccc(OCC(=O)NCCN(CC)CC)cc2)n(CCCC)c1=O	912 nM	2 µM	1130 nM	3.9 µM	4560 nM	35.3 µM	5970 nM	15.6 µM	846 nM	3.45 µM	961 nM	1.93 µM	6.51 µM	15.6 µM	4700 nM	11.2 µM	877 nM	1.95 µM	5.76 µM	15.3 µM
N#CN1CC[C@H](C(=O)Nc2ncc(-c3ccncc3)s2)C1	41.5 nM	2.33 µM	< 15.6 nM	> 100 µM	< 23.8 nM	39.7 µM	< 17.1 nM	< 0.028 µM	80.2 nM	0.761 µM	37.9 nM	2.1 µM	0.0269 µM	3.44 µM	< 16.2 nM	0.989 µM	226 nM	> 38.9 µM	< 0.0277 µM	38.4 µM
CCC1(O)C(=O)OCc2c1cc1n(c2=O)Cc2cc3cc(N)ccc3nc2-1 (stereo unspecified)		0.0469 µM		< 0.01 µM		< 0.01 µM		0.0145 µM				0.153 µM		0.0817 µM		0.469 µM		0.36 µM		0.697 µM
O=[N+]([O-])c1cc(S(=O)(=O)Oc2ccccc2)ccc1Cl	4650 nM	15.5 µM	594 nM	3.53 µM	1830 nM	3.24 µM	1920 nM	6.84 µM	1750 nM	3.39 µM	2060 nM	4.28 µM	16.5 µM	37.9 µM	1490 nM	2.85 µM			3.56 µM	13.6 µM
Cc1c(C2=C(c3cn(C)c4ccccc34)C(=O)NC2=O)c2ccccc2n1C	3560 nM	> 25 µM	1470 nM	> 25 µM	9620 nM	> 25 µM	962 nM	> 25 µM			1500 nM	> 25 µM	13.2 µM	> 25 µM	882 nM	4.73 µM	1160 nM	> 25 µM	15.5 µM	> 25 µM
Cc1nc2ccccc2c(/C=C/c2ccc(Br)cc2)c1C(=O)/C=C/c1ccccc1	1640 nM	3.18 µM	1480 nM	> 100 µM	1620 nM	3.15 µM	2170 nM	5.27 µM			1850 nM	4.48 µM	1.66 µM	3.81 µM	1520 nM	3.14 µM			1.76 µM	3.68 µM
COc1cc(/C=C/[N+](=O)[O-])cc(Br)c1OC	1950 nM	3.54 µM	6650 nM	44.5 µM	1800 nM	3.56 µM	1620 nM	> 100 µM			1780 nM	3.74 µM	2.06 µM	5.28 µM	3230 nM	10.2 µM	2640 nM	9.88 µM	3.94 µM	13.1 µM
C[C@@H]1O[C@@H](OC[C@H]2O[C@@H](OCCc3ccc(O)c(O)c3)[C@H](O)[C@@H](O)[C@@H]2OC(=O)/C=C/c2ccc(O)c(O)c2)[C@H](O)[C@H](O)[C@H]1O	> 100000 nM	> 100 µM			36800 nM	> 100 µM	> 100000 nM	> 100 µM			> 100000 nM	> 100 µM			> 100000 nM	> 100 µM	> 100000 nM	> 100 µM	> 100 µM	> 100 µM
CC1(C)OC2C(=O)C=C(COCc3ccccc3)C2O1 (stereo unspecified)		> 100 µM		> 100 µM		> 100 µM		77.1 µM				92.9 µM		59.4 µM				> 100 µM		> 100 µM
Nc1ccc(-c2nc3ccccc3[nH]2)c2ccccc12	4020 nM	> 41.4 µM	2030 nM	> 43.2 µM	2810 nM	> 22.3 µM			1570 nM	9.61 µM	2730 nM	17.6 µM	3.24 µM	> 30.3 µM	2500 nM	> 41.4 µM	1560 nM	> 28.9 µM	10.1 µM	59.7 µM
CC1=CC(=O)C(O)C2(C)C1CC(O)C13COC4(C)C(OC(=O)C41)C(O)C23 (stereo unspecified)	5130 nM	27.4 µM	5790 nM	> 100 µM	4360 nM	31.6 µM	4240 nM	> 100 µM			4140 nM	15.4 µM	4.8 µM	18.6 µM	19500 nM	62.9 µM	8020 nM	39.1 µM	8.32 µM	32.7 µM
O=C(Oc1cccnc1)c1ccsc1Nc1ccnc(C(F)(F)F)c1	53000 nM	> 100 µM	4190 nM	> 100 µM	24600 nM	> 100 µM			3140 nM	46.5 µM	9390 nM	> 100 µM	4.07 µM	> 100 µM	8760 nM	> 100 µM	24000 nM	> 100 µM	4.44 µM	> 100 µM
C/C1=C\[C@@H](O)C(=O)/C=C/C=C\c2csc(n2)[C@@H](C)NC(=O)C[C@@]2(CC1)S(=O)SC(=O)[C@]2(C)O (stereo partly specified)		0.0354 µM and 0.0108 µM		> 100 µM		0.114 µM		7.36 µM		0.011 µM		0.0397 µM		0.0275 µM and 0.0102 µM			53 nM	0.59 µM and 3.73 µM		0.0882 µM and 0.0192 µM
CN1CCN(CC(O)COc2c(Br)c(Br)c(Br)c3c2OC(C)(C)C3)CC1 (stereo unspecified)	3080 nM	14.6 µM	3110 nM	16.2 µM	11800 nM	24.5 µM	4570 nM	18 µM	3100 nM	12.2 µM			14 µM	34.1 µM	3560 nM	17.4 µM	1790 nM	3.77 µM	11.8 µM	31.6 µM
